Measured values taken from the OligoGym collection.
Where “and” joins values, the source holds several entries; their conditions need not be identical. Identical values can stand only once. HELM strings list units from the 5' end as sugar, base in round brackets, then linkage (d deoxyribose, r ribose, m 2'-O-methyl, p phosphodiester). Methylation of C is not given here. [moe] = 2'-O-(2-methoxyethyl) (MOE); [cEt] = constrained ethyl (cEt); [sp] = phosphorothioate linkage

Target: HBV
Conditions: ASO

| Substance | target mRNA inhibition (HepG2, 0.07 µM) | further results |
| --- | --- | --- |
| RNA1{[moe](A)[sp].[moe](G)[sp].d(A)[sp].d(G)[sp].d(A)[sp].d(A)[sp].d(G)[sp].d(T)[sp].d(C)[sp].d(C)[sp].d(A)[sp].[moe](C)[sp].[moe](C)[sp].[moe](A)[sp].[moe](C)[sp].[moe](G)[sp].[moe](A)}$$$$V2.0 | 39% and 27% | – |
| RNA1{[moe](A)[sp].[moe](G)[sp].d(A)[sp].d(G)[sp].d(G)[sp].d(T)[sp].d(G)[sp].d(A)[sp].d(A)[sp].d(G)[sp].d(C)[sp].[moe](G)[sp].[moe](A)[sp].[moe](A)[sp].[moe](G)[sp].[moe](T)[sp].[moe](G)}$$$$V2.0 | 56% | – |
| RNA1{[moe](A)[sp].[moe](G)[sp].d(A)[sp].d(G)[sp].d(G)[sp].d(T)[sp].d(G)[sp].d(A)[sp].d(A)[sp].d(G)[sp].d(C)[sp].[moe](G)[sp].[moe](A)[sp].[moe](A)[sp].[moe](G)[sp].[moe](T)}$$$$V2.0 | 40% and 48% | – |
| RNA1{[moe](A)[sp].[moe](G)[sp].d(A)[sp].d(T)[sp].d(G)[sp].d(A)[sp].d(G)[sp].d(G)[sp].d(C)[sp].d(A)[sp].d(T)[sp].[moe](A)[sp].[moe](G)[sp].[moe](C)[sp].[moe](A)[sp].[moe](G)[sp].[moe](C)}$$$$V2.0 | 76% and 78% | – |
| RNA1{[moe](A)[sp].[moe](G)[sp].d(A)[sp].d(T)[sp].d(G)[sp].d(A)[sp].d(G)[sp].d(G)[sp].d(C)[sp].d(A)[sp].d(T)[sp].[moe](A)[sp].[moe](G)[sp].[moe](C)[sp].[moe](A)[sp].[moe](G)}$$$$V2.0 | 62% and 46% | – |
| RNA1{[moe](A)[sp].[moe](G)[sp].d(G)[sp].d(A)[sp].d(G)[sp].d(T)[sp].d(T)[sp].d(C)[sp].d(C)[sp].d(G)[sp].d(C)[sp].[moe](A)[sp].[moe](G)[sp].[moe](T)[sp].[moe](A)[sp].[moe](T)[sp].[moe](G)}$$$$V2.0 | 81% and 63% | – |
| RNA1{[moe](A)[sp].[moe](G)[sp].d(G)[sp].d(T)[sp].d(G)[sp].d(A)[sp].d(A)[sp].d(G)[sp].d(C)[sp].d(G)[sp].d(A)[sp].[moe](A)[sp].[moe](G)[sp].[moe](T)[sp].[moe](G)[sp].[moe](C)[sp].[moe](A)}$$$$V2.0 | 72% and 69% | – |
| RNA1{[moe](A)[sp].[moe](G)[sp].d(T)[sp].d(T)[sp].d(C)[sp].d(C)[sp].d(G)[sp].d(C)[sp].d(A)[sp].d(G)[sp].d(T)[sp].[moe](A)[sp].[moe](T)[sp].[moe](G)[sp].[moe](G)[sp].[moe](A)[sp].[moe](T)}$$$$V2.0 | 68% and 70% | – |
| RNA1{[moe](A)[sp].[moe](T)[sp].[moe](G)[sp].[moe](A)[sp].d(G)[sp].d(G)[sp].d(C)[sp].d(A)[sp].d(T)[sp].d(A)[sp].d(G)[sp].d(C)[sp].d(A)[sp].[moe](G)[sp].[moe](C)[sp].[moe](A)[sp].[moe](G)}$$$$V2.0 | 0% | – |
| RNA1{[moe](A)[sp].[moe](T)[sp].[moe](G)[sp].d(A)[sp].d(G)[sp].d(G)[sp].d(C)[sp].d(A)[sp].d(T)[sp].d(A)[sp].d(G)[sp].d(C)[sp].d(A)[sp].[cEt](G)[sp].[cEt](C)[sp].[cEt](A)}$$$$V2.0 | 71% and 73% | – |
| RNA1{[moe](A)[sp].[moe](T)[sp].[moe](T)[sp].[cEt](T)[sp].d(A)[sp].d(T)[sp].d(G)[sp].d(C)[sp].d(C)[sp].d(T)[sp].d(A)[sp].d(C)[sp].d(A)[sp].[cEt](G)[sp].[moe](C)[sp].[moe](C)[sp].[moe](T)}$$$$V2.0 | – | target mRNA inhibition (HepG2, 0.009375 µM): 32%; target mRNA inhibition (HepG2, 0.01875 µM): 32%; target mRNA inhibition (HepG2, 0.0375 µM): 42%; target mRNA inhibition (HepG2, 0.075 µM): 62%; target mRNA inhibition (HepG2, 0.15 µM): 76%; target mRNA inhibition (HepG2, 0.3 µM): 80% |
| RNA1{[moe](A)[sp].[moe](T)[sp].[moe](T)[sp].[moe](T)[sp].d(A)[sp].d(T)[sp].d(G)[sp].d(C)[sp].d(C)[sp].d(T)[sp].d(A)[sp].d(C)[sp].d(A)[sp].[moe](G)[sp].[moe](C)[sp].[moe](C)}$$$$V2.0 | 52% and 49% | – |
| RNA1{[moe](A)[sp].[moe](T)[sp].[moe](T)[sp].d(T)[sp].d(A)[sp].d(T)[sp].d(G)[sp].d(C)[sp].d(C)[sp].d(T)[sp].d(A)[sp].d(C)[sp].d(A)[sp].[moe](G)[sp].[moe](C)[sp].[moe](C)[sp].[moe](T)}$$$$V2.0 | – | target mRNA inhibition (HepG2, 0.0092593 µM): 3%; target mRNA inhibition (HepG2, 0.0277778 µM): 11%; target mRNA inhibition (HepG2, 0.0833333 µM): 13%; target mRNA inhibition (HepG2, 0.25 µM): 41% |
| RNA1{[moe](A)[sp].[moe](T)[sp].d(G)[sp].d(A)[sp].d(G)[sp].d(G)[sp].d(C)[sp].d(A)[sp].d(T)[sp].d(A)[sp].d(G)[sp].[moe](C)[sp].[moe](A)[sp].[moe](G)[sp].[moe](C)[sp].[moe](A)[sp].[moe](G)}$$$$V2.0 | 64% | – |
| RNA1{[moe](C)[sp].[cEt](A)[sp].[cEt](C)[sp].d(A)[sp].d(G)[sp].d(C)[sp].d(T)[sp].d(T)[sp].d(G)[sp].d(G)[sp].d(A)[sp].d(G)[sp].d(G)[sp].[cEt](C)[sp].[cEt](T)[sp].[moe](T)}$$$$V2.0 | 11% and 0% | – |
| RNA1{[moe](C)[sp].[cEt](A)[sp].[cEt](C)[sp].d(G)[sp].d(A)[sp].d(G)[sp].d(T)[sp].d(C)[sp].d(T)[sp].d(A)[sp].d(G)[sp].d(A)[sp].d(C)[sp].[cEt](T)[sp].[cEt](C)[sp].[moe](T)}$$$$V2.0 | 44% and 38% | – |

| Substance | target mRNA inhibition (HepG2, 0.07 µM) | further results |
| --- | --- | --- |
| RNA1{[moe](C)[sp].[cEt](A)[sp].[cEt](G)[sp].d(C)[sp].d(T)[sp].d(T)[sp].d(G)[sp].d(G)[sp].d(A)[sp].d(G)[sp].d(G)[sp].d(C)[sp].d(T)[sp].[cEt](T)[sp].[cEt](G)[sp].[moe](A)}$$$$V2.0 | 5% and 12% | – |
| RNA1{[moe](C)[sp].[cEt](C)[sp].[cEt](A)[sp].d(C)[sp].d(A)[sp].d(T)[sp].d(C)[sp].d(A)[sp].d(T)[sp].d(C)[sp].d(C)[sp].d(A)[sp].d(T)[sp].[cEt](A)[sp].[cEt](T)[sp].[moe](A)}$$$$V2.0 | 60% and 50% | – |
| RNA1{[moe](C)[sp].[cEt](C)[sp].[cEt](G)[sp].d(C)[sp].d(A)[sp].d(G)[sp].d(T)[sp].d(A)[sp].d(T)[sp].d(G)[sp].d(G)[sp].d(A)[sp].d(T)[sp].[cEt](C)[sp].[cEt](G)[sp].[moe](G)}$$$$V2.0 | 63% and 52% | – |
| RNA1{[moe](C)[sp].[cEt](G)[sp].[cEt](G)[sp].d(G)[sp].d(C)[sp].d(A)[sp].d(A)[sp].d(C)[sp].d(A)[sp].d(T)[sp].d(A)[sp].d(C)[sp].d(C)[sp].[cEt](T)[sp].[cEt](T)[sp].[moe](G)}$$$$V2.0 | 61% and 63% | – |
| RNA1{[moe](C)[sp].[cEt](G)[sp].[cEt](T)[sp].d(G)[sp].d(C)[sp].d(A)[sp].d(G)[sp].d(A)[sp].d(G)[sp].d(G)[sp].d(T)[sp].d(G)[sp].d(A)[sp].[cEt](A)[sp].[cEt](G)[sp].[moe](C)}$$$$V2.0 | 68% and 65% | – |
| RNA1{[moe](C)[sp].[cEt](G)[sp].d(T)[sp].d(G)[sp].d(C)[sp].d(A)[sp].d(G)[sp].d(A)[sp].d(G)[sp].d(G)[sp].d(T)[sp].d(G)[sp].[cEt](A)[sp].[moe](A)[sp].[cEt](G)[sp].[moe](C)}$$$$V2.0 | 76% and 79% | – |
| RNA1{[moe](C)[sp].[cEt](T)[sp].d(G)[sp].d(A)[sp].d(A)[sp].d(C)[sp].d(A)[sp].d(A)[sp].d(A)[sp].d(T)[sp].d(G)[sp].d(G)[sp].[cEt](C)[sp].[moe](A)[sp].[cEt](C)[sp].[moe](T)}$$$$V2.0 | 58% and 71% | – |
| RNA1{[moe](C)[sp].[moe](A)[sp].[moe](A)[sp].[moe](T)[sp].[moe](T)[sp].d(T)[sp].d(A)[sp].d(T)[sp].d(G)[sp].d(C)[sp].d(C)[sp].d(T)[sp].d(A)[sp].d(C)[sp].[moe](A)[sp].[moe](G)[sp].[moe](C)}$$$$V2.0 | 30% and 13% | – |
| RNA1{[moe](C)[sp].[moe](A)[sp].[moe](C)[sp].d(T)[sp].d(A)[sp].d(G)[sp].d(T)[sp].d(A)[sp].d(A)[sp].d(A)[sp].d(C)[sp].d(T)[sp].[moe](G)[sp].[moe](A)[sp].[moe](G)[sp].[moe](C)[sp].[moe](C)}$$$$V2.0 | 54% and 37% | – |
| RNA1{[moe](C)[sp].[moe](A)[sp].[moe](G)[sp].[moe](A)[sp].[moe](G)[sp].d(G)[sp].d(T)[sp].d(G)[sp].d(A)[sp].d(A)[sp].d(G)[sp].d(C)[sp].d(G)[sp].d(A)[sp].[moe](A)[sp].[moe](G)}$$$$V2.0 | 60% and 57% | – |
| RNA1{[moe](C)[sp].[moe](A)[sp].[moe](G)[sp].[moe](A)[sp].d(G)[sp].d(G)[sp].d(T)[sp].d(G)[sp].d(A)[sp].d(A)[sp].d(G)[sp].d(C)[sp].d(G)[sp].[moe](A)[sp].[moe](A)[sp].[moe](G)[sp].[moe](T)}$$$$V2.0 | 60% and 45% | – |
| RNA1{[moe](C)[sp].[moe](A)[sp].[moe](G)[sp].d(A)[sp].d(G)[sp].d(G)[sp].d(T)[sp].d(G)[sp].d(A)[sp].d(A)[sp].d(G)[sp].d(C)[sp].d(G)[sp].[cEt](A)[sp].[cEt](A)[sp].[cEt](G)}$$$$V2.0 | 60% and 62% | – |
| RNA1{[moe](C)[sp].[moe](C)[sp].[moe](A)[sp].[moe](A)[sp].[moe](T)[sp].d(T)[sp].d(T)[sp].d(A)[sp].d(T)[sp].d(G)[sp].d(C)[sp].d(C)[sp].d(T)[sp].d(A)[sp].[moe](C)[sp].[moe](A)[sp].[moe](G)}$$$$V2.0 | 25% and 9% | – |
| RNA1{[moe](C)[sp].[moe](C)[sp].[moe](A)[sp].[moe](A)[sp].d(T)[sp].d(T)[sp].d(T)[sp].d(A)[sp].d(T)[sp].d(G)[sp].d(C)[sp].d(C)[sp].d(T)[sp].[moe](A)[sp].[moe](C)[sp].[moe](A)[sp].[moe](G)}$$$$V2.0 | 34% and 11% | – |
| RNA1{[moe](C)[sp].[moe](C)[sp].[moe](A)[sp].d(C)[sp].d(T)[sp].d(G)[sp].d(A)[sp].d(A)[sp].d(C)[sp].d(A)[sp].d(A)[sp].d(A)[sp].d(T)[sp].[cEt](G)[sp].[cEt](G)[sp].[cEt](C)}$$$$V2.0 | 77% and 78% | – |
